The source of these data is patent publication US20230242530A1, “8-(AZETIDIN-1-YL)-[1,2,4]TRIAZOLO[1,5-A]PYRIDINYL COMPOUNDS, COMPOSITIONS AND METHODS OF USE THEREOF” (Genentech, Inc., priority 2016, published 2023).

In assay [1] the target is T1, isolated recombinant JAK1 kinase domain (Homo sapiens, UniProt P23458).
T1 construct: isolated recombinant JAK1 and JAK2 kinase domain
As to the kind of experiment: JAK enzyme assay, JAK1 kinase domain (Caliper LabChip). Format: biochemical. The following applies: 1.5 nM JAK1, ATP 25 μM, Morrison tight binding model. The gist of the method:
(§1)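 Ki values were obtained by Morrison tight-binding analysis with ATP-competitive correction, Ki=Ki,app/(1+[ATP]/Km,app). Phosphorylated versus total fluorescent JAK3-derived peptide was quantified on a Caliper LabChip. Kinase reactions with the isolated recombinant domains ran 30 min at 22 °C before EDTA quench (50 mM final).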

Assay [2] addresses T2, isolated recombinant JAK2 kinase domain (Homo sapiens, UniProt O60674).
T2 construct: isolated recombinant JAK1 and JAK2 kinase domain
As to the kind of experiment: JAK enzyme assay, JAK2 kinase domain (Caliper LabChip). Format: biochemical. The following applies: 0.2 nM JAK2, ATP 25 μM, Morrison tight binding model. The gist of the method:
as §1

Assay [3] deals with JAK1-dependent STAT6 phosphorylation downstream of IL-13 stimulation in BEAS-2B cells. Kind of assay: JAK1 pathway assay in cell lines: IL-13 p-STAT6 BEAS-2B. Format: cell-based. Conditions: BEAS-2B human bronchial epithelial cells, 1 hr compound, IL-13 15 min, MSD readout. Summed up: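 Phospho-STAT6 read by MSD electrochemiluminescence in lysates of BEAS-2B cells kept in complete growth medium. Cells were pretreated 1 hr at 37 °C with compound (0.2% DMSO final) and stimulated 15 min with IL-13 at its EC90; EC50 is the concentration halving signal versus DMSO.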

The term Ki denotes a dissociation constant, usually derived from enzyme kinetics or from competition with a known ligand. One may read the EC50 as the concentration at which the effect is half-maximal. Read a low EC50 as greater potency.

T1 sequence (P23458 875-1153 limits assumed): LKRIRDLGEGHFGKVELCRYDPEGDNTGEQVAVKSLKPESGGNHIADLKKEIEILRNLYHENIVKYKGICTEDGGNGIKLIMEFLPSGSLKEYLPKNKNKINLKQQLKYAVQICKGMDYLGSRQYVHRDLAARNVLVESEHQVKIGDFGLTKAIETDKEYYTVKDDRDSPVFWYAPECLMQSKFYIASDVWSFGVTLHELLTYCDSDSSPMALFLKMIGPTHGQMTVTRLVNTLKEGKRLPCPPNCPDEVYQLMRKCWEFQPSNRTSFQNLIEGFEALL
T2 sequence (O60674 849-1124 limits assumed): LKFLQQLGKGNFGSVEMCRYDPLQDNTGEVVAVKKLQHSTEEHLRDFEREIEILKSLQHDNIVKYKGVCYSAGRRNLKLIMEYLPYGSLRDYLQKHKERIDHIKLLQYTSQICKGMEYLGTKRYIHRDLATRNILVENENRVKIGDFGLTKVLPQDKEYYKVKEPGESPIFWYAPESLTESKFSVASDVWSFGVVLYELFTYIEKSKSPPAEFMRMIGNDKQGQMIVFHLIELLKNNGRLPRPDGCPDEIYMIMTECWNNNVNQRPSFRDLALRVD

On to `Cn1cc(Nc2nc3c(N4CC(CC#N)(n5cc(C6CC6)cn5)C4)cccn3n2)cn1` [Example 142, 2-[3-(4-cyclopropylpyrazol-1-yl)-1-[2-[(l-methylpyrazol-4-yl)amino]-[1,2,4]triazolo[1,5-a]pyridin-8-yl]azetidin-3-yl]acetonitrile], for which the results for the Ki in assay [1] and in assay [2] were 0.4 nM and 0.5 nM, respectively. The concentration for a half-maximal effect (EC50) in assay [3] worked out at 14 nM.

Regarding `CN1CCN(C(=O)Cn2cc(Nc3nc4c(N5CC(CC#N)(N6CCN(C)CC6)C5)cccn4n3)cn2)CC1` [Example 9, 2-[3-(4-methylpiperazin-1-yl)-1-[2-[[1-[2-(4-methylpiperazin-1-yl)-2-oxo-ethyl]pyrazol-4-yl]amino]-[1,2,4]triazolo[1,5-a]pyridin-8-yl]azetidin-3-yl]acetonitrile], the figures for the inhibitory constant (Ki) in assay [1] and in assay [2] were 0.6 nM and 2.5 nM, respectively. In addition, in assay [3], the EC50 stood at 34 nM.

For the compound `CN1CCN(C2CCN(C(=O)Cn3cc(Nc4nc5c(N6CC(CC#N)(c7cccc(Cl)c7)C6)cccn5n4)cn3)CC2)CC1` [Example 70, 2-[3-(3-chlorophenyl)-1-[2-[[1-[2-[4-(4-methylpiperazin-1-yl)-1-piperidyl]-2-oxo-ethyl]pyrazol-4-yl]amino]-[1,2,4]triazolo[1,5-a]pyridin-8-yl]azetidin-3-yl]acetonitrile], the inhibition constant Ki in assay [1] came out at 0.2 nM; in assay [2] it was 0.3 nM. In assay [3], this compound showed an EC50 of 10 nM.

For `CN1CCN(C(=O)Cn2cc(Nc3nc4c(N5CC(CC#N)(n6cc(-c7ccccc7F)cn6)C5)cccn4n3)cn2)CC1` [Example 77, 2-[3-[4-(2-fluorophenyl)pyrazol-1-yl]-1-[2-[[1-[2-(4-methylpiperazin-1-yl)-2-oxo-ethyl]pyrazol-4-yl]amino]-[1,2,4]triazolo[1,5-a]pyridin-8-yl]azetidin-3-yl]acetonitrile], the Ki in assay [1] worked out at 0.2 nM; in assay [2], 0.6 nM. Besides, the response in assay [3] was half-maximal at 17 nM (EC50).

Consider `Cc1cc(Cl)ccc1C1(CC#N)CN(c2cccn3nc(Nc4cnn(CC(=O)N5CCN(C)CC5)c4)nc23)C1` [Example 24, 2-[3-(4-chloro-2-methyl-phenyl)-1-[2-[[1-[2-(4-methylpiperazin-1-yl)-2-oxo-ethyl]pyrazol-4-yl]amino]-[1,2,4]triazolo[1,5-a]pyridin-8-yl]azetidin-3-yl]acetonitrile], for which the results for the Ki in assay [1] and in assay [2] were 0.4 nM and 2.3 nM, respectively. This compound also returned an EC50 in assay [3] of 87 nM.

In the case of `CN1CCN(C(=O)Cn2cc(Nc3nc4c(N5CC(CC#N)(n6cccn6)C5)cccn4n3)cn2)CC1` [Example 18], the Ki in assay [1] stood at 0.7 nM; in assay [2], 1.5 nM. This compound also displayed an EC50 in assay [3] of 21 nM.

As to `CCc1cnn(C2(CC#N)CN(c3cccn4nc(Nc5ccc6c(c5)CCN(C)C6)nc34)C2)c1` [Example 50, 2-[3-(4-ethylpyrazol-1-yl)-1-[2-[(2-methyl-3,4-dihydro-1H-isoquinolin-6-yl)amino]-[1,2,4]triazolo[1,5-a]pyridin-8-yl]azetidin-3-yl]acetonitrile], the inhibition constant Ki was 1.8 nM in assay [1] and 2 nM in assay [2]. In assay [3], this compound yielded an EC50 of 65 nM.

With `CCc1cnn(C2(CC#N)CN(c3cccn4nc(Nc5cnn(CC(=O)N6CCN(C7COC7)CC6)c5)nc34)C2)c1` [Example 32, 2-[3-(4-ethylpyrazol-1-yl)-1-[2-[[1-[2-[4-(oxetan-3-yl)piperazin-1-yl]-2-oxo-ethyl]pyrazol-4-yl]amino]-[1,2,4]triazolo[1,5-a]pyridin-8-yl]azetidin-3-yl]acetonitrile;formic acid], the figures for the Ki in assay [1] and in assay [2] were 0.4 nM and 0.2 nM, respectively. The compound also returned an EC50 in assay [3] of 19 nM.

With `CCc1cnn(C2(C(C)C#N)CN(c3cccn4nc(Nc5cnn(CC(=O)N6CCN(C)CC6)c5)nc34)C2)c1` (stereo not drawn) [Example 54, 2-[3-(4-ethylpyrazol-1-yl)-1-[2-[[1-[2-(4-methylpiperazin-1-yl)-2-oxo-ethyl]pyrazol-4-yl]amino]-[1,2,4]triazolo[1,5-a]pyridin-8-yl]azetidin-3-yl]propanenitrile], the Ki was 1 nM in assay [1] and 2.8 nM in assay [2]. This compound came in with an EC50 in assay [3] of 231 nM.
